Reference: patent US20230398130A1, “METHODS AND COMPOSITIONS FOR DIFFERENTIATING STEM CELLS” (Massachusetts Institute of Technology, priority 2020, published 2023)

Tests used:
ISC-enriched organoids [1] = assay: Primary screen, 384-well 2.5-D organoid differentiation (ENR+CD, 6 days, Target Selective Inhibitor Library, vs whole-plate median): ATP (CellTiter-Glo 3D, CTG); conditions: for Dose.FC.CTG (log 2 fold change, ATP): vs plate median
ISC-enriched organoids [2] = assay: Primary screen, 384-well 2.5-D organoid differentiation (ENR+CD, 6 days): basal lysozyme secretion (LYZ.NS); assay type: cell-based, murine; conditions: for Dose.FC.LYZ.NS (log 2 fold change, basal lysozyme secretion): vs plate median
Source text: (§1) High-throughput screening.

ISC-enriched organoids [3] = assay: Primary screen, 384-well 2.5-D organoid differentiation (ENR+CD, 6 days): carbachol-induced lysozyme secretion (LYZ.S); assay type: cell-based, murine; conditions: vs plate median
Source text: as §1

Row | SMILES | Z.CTG (standard z score) (ISC-enriched organoids [1]; dose 0.08 uM) | Dose.FC.CTG (log 2 fold change, ATP) (ISC-enriched organoids [1]; dose 0.08 uM) | Z.CTG (standard z score) (ISC-enriched organoids [1]; dose 0.40 uM) | Dose.FC.CTG (log 2 fold change, ATP) (ISC-enriched organoids [1]; dose 0.40 uM) | Z.CTG (standard z score) (ISC-enriched organoids [1]; dose 2.00 uM) | Dose.FC.CTG (log 2 fold change, ATP) (ISC-enriched organoids [1]; dose 2.00 uM) | Z.CTG (standard z score) (ISC-enriched organoids [1]; dose 10.00 uM) | Dose.FC.CTG (log 2 fold change, ATP) (ISC-enriched organoids [1]; dose 10.00 uM) | Z.LYZ.NS (standard z score) (ISC-enriched organoids [2]; dose 0.08 uM) | Dose.FC.LYZ.NS (log 2 fold change, basal lysozyme secretion) (ISC-enriched organoids [2]; dose 0.08 uM) | Z.LYZ.NS (standard z score) (ISC-enriched organoids [2]; dose 0.40 uM) | Dose.FC.LYZ.NS (log 2 fold change, basal lysozyme secretion) (ISC-enriched organoids [2]; dose 0.40 uM) | Z.LYZ.NS (standard z score) (ISC-enriched organoids [2]; dose 2.00 uM) | Dose.FC.LYZ.NS (log 2 fold change, basal lysozyme secretion) (ISC-enriched organoids [2]; dose 2.00 uM) | Z.LYZ.NS (standard z score) (ISC-enriched organoids [2]; dose 10.00 uM) | Dose.FC.LYZ.NS (log 2 fold change, basal lysozyme secretion) (ISC-enriched organoids [2]; dose 10.00 uM) | Dose.FC.LYZ.S (log 2 fold change, carbachol-induced lysozyme secretion) (ISC-enriched organoids [3]; dose 0.08 uM) | Dose.FC.LYZ.S (log 2 fold change, carbachol-induced lysozyme secretion) (ISC-enriched organoids [3]; dose 0.40 uM) | Dose.FC.LYZ.S (log 2 fold change, carbachol-induced lysozyme secretion) (ISC-enriched organoids [3]; dose 2.00 uM) | Dose.FC.LYZ.S (log 2 fold change, carbachol-induced lysozyme secretion) (ISC-enriched organoids [3]; dose 10.00 uM)
1 | CCCCNc1ncc(-c2ccc(CN3CCOCC3)cn2)c(NC2CCC(O)CC2)n1 (centres unmarked) [UNC2250] | 0.633 | 0.265 | 0.667 | 0.279 | 0.250 | 0.105 | −0.153 | −0.064 | 1.005 | 0.115 | 0.587 | 0.067 | 0.744 | 0.085 | −1.336 | −0.153 | 0.142 | 0.113 | 0.134 | −0.205
2 | CS(=O)(=O)c1ccc(-c2cnc(N)c(C(=O)Nc3ccccc3)n2)cc1 [VE-821] | 0.508 | 0.213 | 0.311 | 0.130 | −0.328 | −0.137 | −2.006 | −0.840 | 0.924 | 0.106 | 0.544 | 0.063 | 0.901 | 0.103 | −2.475 | −0.284 | 0.130 | 0.089 | −0.004 | −0.429
3 | Cc1cc(Nc2cc(N3CCN(C)CC3)nc(Sc3ccc(NC(=O)C4CC4)cc3)n2)n[nH]1 [VX-680 (Tozasertib, MK-0457)] | −0.359 | −0.150 | −1.425 | −0.596 | −1.686 | −0.706 | −2.291 | −0.959 | −0.371 | −0.043 | −1.317 | −0.151 | −1.450 | −0.166 | −2.069 | −0.238 | −0.078 | −0.245 | −0.308 | −0.342
4 | Cc1ccc(NC(=O)C2(c3ccc4c(c3)OC(F)(F)O4)CC2)nc1-c1cccc(C(=O)O)c1 [VX-809 (Lumacaftor)] | 0.423 | 0.177 | −0.149 | −0.062 | −0.346 | −0.145 | 0.076 | 0.032 | 0.634 | 0.073 | −0.353 | −0.041 | −0.279 | −0.032 | −0.713 | −0.082 | 0.218 | −0.027 | −0.073 | −0.117
5 | COc1cc2/c(=N/c3ccc(Br)cc3F)nc[nH]c2cc1OCC1CCN(C)CC1 [Vandetanib (ZD6474)] | −1.547 | −0.648 | −0.874 | −0.366 | −2.089 | −0.874 | −2.880 | −1.206 | −0.594 | −0.068 | −0.792 | −0.091 | −2.356 | −0.271 | −2.594 | −0.298 | −0.139 | −0.054 | −0.384 | −0.494
6 | C[C@]1(c2nc3c(C(N)=O)cccc3[nH]2)CCCN1 [Veliparib (ABT-888)] | 0.307 | 0.128 | 0.132 | 0.055 | −0.057 | −0.024 | −0.521 | −0.218 | 0.649 | 0.075 | 1.211 | 0.139 | 0.203 | 0.023 | −0.537 | −0.062 | 0.105 | 0.179 | −0.016 | −0.136
7 | CCCS(=O)(=O)Nc1ccc(F)c(C(=O)c2c[nH]c3ncc(-c4ccc(Cl)cc4)cc23)c1F [Vemurafenib (PLX4032, RG7204)] | 0.297 | 0.124 | −0.195 | −0.082 | −0.014 | −0.006 | 0.073 | 0.030 | 0.786 | 0.090 | 0.462 | 0.053 | 0.411 | 0.047 | 0.263 | 0.030 | 0.120 | 0.150 | 0.055 | 0.022
